Starred links: 1 amine or outer side, 2 acyl side, 3 side chain; linkers in the order of their positions; H or OH if unused. Positions of bridges follow the written chain, without caps; N, C: chain ends. Non-standard residues stand in square brackets, D forms with d. Residues, ends and D or L forms follow the SMILES beside them. *: point of attachment. X1 = CC[C@H](C)[C@@H](N[*:1])[C@@H](O)CC(=O)O[C@H](C(=O)[C@H](C)C(=O)[*:2])C(C)C; NMeY = CN[C@@H](Cc1ccc(O)cc1)C(=O)O; dNMeL = CN[C@H](CC(C)C)C(=O)O; Pyruvoyl = CC(=O)C(=O)*
System: COVID-19
Assay: APLICOV-PC: six-point ordinal scale (post hoc)
Type: in vivo, human
Procedure: Although not specified in the protocol (so not captured in the CRF), post-hoc analysis was performed to categorize the status of each patient at baseline, on Days 7, 15, 31, and at time of discharge using the following 6-point ordinal scale (Wang et al 2020):
Hospital admission, not requiring supplemental oxygen
Hospital admission, requiring supplemental oxygen
Hospital admission, requiring high-flow nasal cannula or noninvasive mechanical ventilation
Hospital admission, requiring extracorporeal membrane oxygenation or invasive mechanical ventilation
The number and percentage of patients with at least 1-point and at least 2-point improvements from baseline was calculated for Days 7, 15, 31 and date of discharge.

Structure (SMILES): CC[C@H](C)[C@H]1NC(=O)[C@@H](NC(=O)[C@@H](CC(C)C)N(C)C(=O)[C@@H]2CCCN2C(=O)C(C)=O)[C@@H](C)OC(=O)[C@H](Cc2ccc(OC)cc2)N(C)C(=O)[C@@H]2CCCN2C(=O)[C@H](CC(C)C)NC(=O)[C@@H](C)C(=O)[C@H](C(C)C)OC(=O)C[C@@H]1O [Plitidepsin] (Pyruvoyl-P[dNMeL]T[X1]LP[NMeY](Me); ester 3-C)
- 2 Hospital admission, not requiring supplemental oxygen (Day 4, 1.5 mg (N=14)): 28.6%
- 3 Hospital admission, requiring supplemental oxygen (Day 4, 1.5 mg (N=14)): 57.1%
- 4 Hospital admission, requiring high-flow nasal cannula or non-invasive mechanical ventilation (Day 4, 1.5 mg (N=14)): 14.3%
- 2 Hospital admission, not requiring supplemental oxygen (Day 4, 2 mg (N=15)): 40%
- 3 Hospital admission, requiring supplemental oxygen (Day 4, 2 mg (N=15)): 60%
- 2 Hospital admission, not requiring supplemental oxygen (Day 4, 2.5 mg (N=15)): 33.3%
- 3 Hospital admission, requiring supplemental oxygen (Day 4, 2.5 mg (N=15)): 66.7%
- 2 Hospital admission, not requiring supplemental oxygen (Day 4, Total (N=44)): 34.1%
- 3 Hospital admission, requiring supplemental oxygen (Day 4, Total (N=44)): 61.4%
- 4 Hospital admission, requiring high-flow nasal cannula or non-invasive mechanical ventilation (Day 4, Total (N=44)): 4.5%
- 1 Discharged (Alive) (Day 7, 1.5 mg (N=14)): 21.4%
- 2 Hospital admission, not requiring supplemental oxygen (Day 7, 1.5 mg (N=14)): 21.4%
- 3 Hospital admission, requiring supplemental oxygen (Day 7, 1.5 mg (N=14)): 35.7%
- 4 Hospital admission, requiring high-flow nasal cannula or non-invasive mechanical ventilation (Day 7, 1.5 mg (N=14)): 21.4%
- 1 Discharged (Alive) (Day 7, 2 mg (N=15)): 13.3%
- 2 Hospital admission, not requiring supplemental oxygen (Day 7, 2 mg (N=15)): 20%
- 3 Hospital admission, requiring supplemental oxygen (Day 7, 2 mg (N=15)): 66.7%
- 1 Discharged (Alive) (Day 7, 2.5 mg (N=15)): 33.3%
- 2 Hospital admission, not requiring supplemental oxygen (Day 7, 2.5 mg (N=15)): 20%
- 3 Hospital admission, requiring supplemental oxygen (Day 7, 2.5 mg (N=15)): 26.7%
- 4 Hospital admission, requiring high-flow nasal cannula or non-invasive mechanical ventilation (Day 7, 2.5 mg (N=15)): 20%
- 1 Discharged (Alive) (Day 7, Total (N=44)): 22.7%
- 2 Hospital admission, not requiring supplemental oxygen (Day 7, Total (N=44)): 20.5%
- 3 Hospital admission, requiring supplemental oxygen (Day 7, Total (N=44)): 43.2%
- 4 Hospital admission, requiring high-flow nasal cannula or non-invasive mechanical ventilation (Day 7, Total (N=44)): 13.6%
- 1 Discharged (Alive) (Day 15, 1.5 mg (N=14)): 78.6%
- 3 Hospital admission, requiring supplemental oxygen (Day 15, 1.5 mg (N=14)): 7.1%
- 4 Hospital admission, requiring high-flow nasal cannula or non-invasive mechanical ventilation (Day 15, 1.5 mg (N=14)): 7.1%
- 5 Hospital admission, requiring extracorporeal membrane oxygenation or invasive mechanical ventilation (Day 15, 1.5 mg (N=14)): 7.1%
- 1 Discharged (Alive) (Day 15, 2 mg (N=15)): 93.3%
- 5 Hospital admission, requiring extracorporeal membrane oxygenation or invasive mechanical ventilation (Day 15, 2 mg (N=15)): 6.7%
- 1 Discharged (Alive) (Day 15, 2.5 mg (N=15)): 73.3%
- 3 Hospital admission, requiring supplemental oxygen (Day 15, 2.5 mg (N=15)): 6.7%
- 4 Hospital admission, requiring high-flow nasal cannula or non-invasive mechanical ventilation (Day 15, 2.5 mg (N=15)): 20%
- 1 Discharged (Alive) (Day 15, Total (N=44)): 81.8%
- 3 Hospital admission, requiring supplemental oxygen (Day 15, Total (N=44)): 4.5%
- 4 Hospital admission, requiring high-flow nasal cannula or non-invasive mechanical ventilation (Day 15, Total (N=44)): 9.1%
- 5 Hospital admission, requiring extracorporeal membrane oxygenation or invasive mechanical ventilation (Day 15, Total (N=44)): 4.5%
- 1 Discharged (Alive) (Day 31, 1.5 mg (N=14)): 85.7%
- 2 Hospital admission, not requiring supplemental oxygen (Day 31, 1.5 mg (N=14)): 7.1%
- 6 Death (Day 31, 1.5 mg (N=14)): 7.1%
- 1 Discharged (Alive) (Day 31, 2 mg (N=15)): 93.3%
- 4 Hospital admission, requiring high-flow nasal cannula or non-invasive mechanical ventilation (Day 31, 2 mg (N=15)): 6.7%
- 1 Discharged (Alive) (Day 31, 2.5 mg (N=15)): 80%
- 2 Hospital admission, not requiring supplemental oxygen (Day 31, 2.5 mg (N=15)): 6.7%

— article PMC8761492 (Life Science Alliance, 2022)
